Columns and labels:
Assay type in all cases: cell-based
U87MG cells = assay: U87MG cell proliferation, MTS assay; details: 72 h
Protocol: FIG. 1 illustrates the effects of SA16 on U87MG cell proliferation of example 3 (a). U87MG cells were treated in complete medium with different concentrations of SA16 (1 nM-100 μM) for 72 h. At the end of treatment, cell proliferation was measured using the MTS assay. The data are expressed as a percentage with respect to that of untreated cells (control), which was set to 100%, and are the mean values±SEM of three independent experiments, each performed in duplicate. The significance of the differences was determined with a one-way ANOVA with Bonferroni post-test: * p<0.05, ** p<0.01, *** p<0.001 vs. control cells;
FIG. 2 illustrates the combined inhibition of PDK1 and Aurora A on U87MG cell proliferation of example 3a. U87MG cells were treated in complete medium with different concentrations of MP7, in the presence or absence of Alisertib, for 72 h. At the end of treatment, cell proliferation was measured using the MTS assay. The data are expressed as a percentage with respect to that of untreated cells (control), which was set to 100%, and are the mean values±SEM of three independent experiments, each performed in duplicate. The significance of the differences was determined with a one-way ANOVA with Bonferroni post-test: * p<0.05, *** p<0.001 vs. control cells; ## p<0.01, ### p<0.001 vs. cells treated with MP7 alone; §§ p<0.01, § § § p<0.001 vs. cells treated with Alisertib alone;
To examine the effects of SA16 on U87MG cell growth/survival, U87MG cells were incubated with different concentrations of the compound SA16 (1 nM-10 μM) for 72 h.
In parallel experiments, U87MG proliferation was assessed in the presence of a well-known PDK1 inhibitor MP7, alone or in combination with the Aurora A inhibitor, Alisertib.

CSC neurospheres = assay: Sphere-derived cell morphology (neurosphere area, outgrowth of cellular processes); details: seven days, SA16 10 nM, 1 μM, 10 μM; for area occupied by the neurospheres: 2.5 PIM MP7, 1.5 μM Alisertib
Protocol: FIG. 5 illustrates the effects of SA16 on sphere-derived cell morphology of Example 3c. CSCs were treated for seven days with complete NSC medium containing DMSO (control), or SA16 (10 nM, 1 μM, 10 μM) (A) Representative cell micrographs of control and SA16 (10 μM) after seven days of treatment are shown. The area of the culture plates occupied by the spheres (B) and the length of cellular processes (C) were scored after seven days of treatment. The counts represent the mean values±SEM of two independent experiments. The significance of differences was determined with a one-way ANOVA with Bonferroni post-test: * p<0.05, ** p<0.01, *** p<0.001 vs. control cells.
FIG. 7 illustrates the effects of MP7, Alisertib and of their combined treatment on sphere-derived cell morphology of example 3c. CSCs were treated for seven days with complete NSC medium containing DMSO (control), MP7 and/or alisertib (A) Representative cell micrographs after seven days of treatment are shown. The area of the culture plates occupied by the spheres (B) and the length of cellular processes (C) were scored after seven days of treatment. The counts represent the mean values±SEM of two independent experiments. The significance of differences was determined with a one-way ANOVA with Bonferroni post-test: * p<0.05, *** p<0.001 vs. control cells; ## p<0.01 vs. cells treated with MP7 alone; § p<0.05 vs. cells treated with Alisertib alone.
The effects of SA16 on morphology of neurospheres were evaluated by quantifying the area occupied by the cells in culture plates, as well as the outgrowth of cellular processes.
The inventors then evaluated the effects of MP7, Alisertib and of their combination on CSC differentiation. The cells were incubated with […] MP7, alone or in combination with 1.5 μM Alisertib for seven days.

[1] = tested on: cancer stem cell (CSC) neurospheres obtained from U87MG cells; assay: CSC (GBM stem cell) proliferation, MTS assay; details: seven days
Protocol: FIG. 3 illustrates the effects of SA16 on CSC proliferation of example 3b. CSCs were treated in complete neurosphere medium with different concentrations of SA16 (1 nM-100 μM) for seven days. At the end of treatment, cell proliferation was measured using the MTS assay. The data are expressed as a percentage with respect to that of untreated cells (control), which was set to 100%, and are the mean values±SEM of three independent experiments, each performed in duplicate. IC50 value after seven days of treatment were calculated from sigmoid dose-response curve;
FIG. 4 illustrates combined inhibition of PDK1 and Aurora A on CSCs proliferation of example 3b. CSCs were treated in complete medium with different concentrations of MP7, in the presence or absence of Alisertib, for seven days. At the end of treatment, cell proliferation was measured using the MTS assay.
The data are expressed as a percentage with respect to that of untreated cells (control), which was set to 100%, and are the mean values±SEM of three independent experiments, each performed in duplicate. The significance of the differences was determined with a one-way ANOVA with Bonferroni post-test: * p<0.05, *** p<0.001 vs. control cells; ## p<0.01, ### p<0.001 vs. cells treated with MP7 alone; §§ p<0.01, § § § p<0.001 vs. cells treated with Alisertib alone;
The inventors also examined the effects of SA16 compound on cancer stem cell (CSC) neurospheres obtained from U87MG cells.

| Compound | effect on U87MG cell proliferation (in words) (U87MG cells) | outgrowth of cellular processes (CSC neurospheres; 1.5 μM Alisertib) | area occupied by the neurospheres (CSC neurospheres) | effect on CSC proliferation (in words) [1] |
| --- | --- | --- | --- | --- |
| COc1cc(Nc2ncc3c(n2)-c2ccc(Cl)cc2C(c2c(F)cccc2OC)=NC3)ccc1C(=O)O [Alisertib, 4-{[9-Chloro-7-(2-fluoro-6-methoxyphenyl)-5H-pyrimido[5,4-d][2]benzazepin-2-yl]amino}-2-methoxybenzoic acid] | slightly reduced U87MG cell proliferation | modest but significant outgrowth of cellular processes | reduction in the area occupied by the neurospheres | anti-proliferative effects on CSCs, in a concentration-dependent manner |
| O=C(N[C@@H](COc1ccc2[nH]c(=O)[nH]c2c1)c1ccccc1)c1cccn(Cc2ccc(F)c(F)c2)c1=O [MP7, 1-(3,4-difluorobenzyl)-2-oxo-N-{(1R)-2-[(2-oxo-2,3-dihydro-1H-benzimidazol-5-yl)oxy]-1-phenylethyl}-1,2-dihydropyridine-3-carboxamide] | did not show a significant inhibition of cell proliferation |  | reduction in the area occupied by the neurospheres | slight effects on U87MG proliferation |

Reference: patent US20190160049A1, “2-OXO-1,2-DIHYDROPYRIDINE-3-CARBOXAMIDE COMPOUNDS AND THEIR USE AS DUAL INHIBITORS OF PDK1/AURA” (INTERNATIONAL SOCIETY FOR DRUG DEVELOPMENT S.R.L., priority 2016, published 2019)
